From patent publication US8791163B2 (McGill University, priority 2006, dated 2014)

Experiments:
[1] = molecular target: T1, cloned human MT1 receptors (Homo sapiens, UniProt P48039); experiment: 2-[125I]iodomelatonin competition binding, human MT1 in NIH3T3 cells; conditions: calculated from IC50 by Cheng-Prusoff, mean of at least three determinations
T1 construct: expressed in transfected cells
Experimental: (§1) Membranes were incubated for 90 min at 37° C. in binding buffer (Tris/HCl 50 mM, pH 7.4). The final membrane concentration was 5-10 μg of protein per tube. […] The pKi values are the mean of at least three independent determinations performed in duplicate. To define the functional activity of the compounds of Formula (I) at the MT1 and MT2 receptor subtypes, [^35S]GTPγS binding assays in NIH3T3 cells expressing human-cloned MT1 or MT2 receptors were performed. The amount of bound [^35S]GTPγS is proportional to the level of analogue-induced G-protein activation and is related to the intrinsic activity of the compound (i.e. a compound of Formula (I)) under study. […] Nonspecific binding was assessed using non-radiolabeled GTPγS (10 μM). […] Basal stimulation is the amount of [^35S]GTPγS specifically bound in the absence of the compounds of Formula (I) and was taken as 100%. […] All of the measurements were performed in triplicate.

[2] = molecular target: T2, cloned human MT2 receptors (Homo sapiens, UniProt P49286); experiment: 2-[125I]iodomelatonin competition binding, human MT2 in NIH3T3 cells; conditions: human MT2 in NIH3T3 cells; calculated from IC50 by Cheng-Prusoff; mean of at least three determinations
T2 construct: expressed in transfected cells
T2 sequence (P49286 1-362): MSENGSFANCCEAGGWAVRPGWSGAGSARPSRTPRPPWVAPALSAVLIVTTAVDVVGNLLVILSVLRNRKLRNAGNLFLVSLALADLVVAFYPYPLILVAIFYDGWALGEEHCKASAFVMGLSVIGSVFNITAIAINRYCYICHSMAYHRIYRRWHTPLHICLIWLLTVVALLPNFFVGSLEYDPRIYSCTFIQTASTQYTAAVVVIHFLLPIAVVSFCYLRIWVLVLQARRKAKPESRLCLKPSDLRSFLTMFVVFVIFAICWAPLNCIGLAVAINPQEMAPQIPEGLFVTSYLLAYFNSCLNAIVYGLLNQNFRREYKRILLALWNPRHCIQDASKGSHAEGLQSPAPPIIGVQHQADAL
Experimental: as §1

[3] = molecular target: T1, cloned human MT1 receptors; experiment: [35S]GTPγS binding assay, NIH3T3 cells expressing human MT1; assay type: biochemical; conditions: maximal net effect relative to MLT
Experimental: as §1

[4] = molecular target: T2, cloned human MT2 receptors; experiment: [35S]GTPγS binding assay, NIH3T3 cells expressing human MT2; assay type: biochemical; conditions: maximal net effect relative to MLT
Experimental: as §1

[5] = test system: Adult Sprague Dawley rats; experiment: Elevated plus maze (EPM); assay type: in vivo, rat; conditions: melatonin 50 mg/kg
Experimental: The maze is comprised of two open arms (50×10 cm) and two closed arms (50×10×40 cm) that extend from a common central platform (10×10 cm). The apparatus, made of wood (painted black) was elevated to a height of 80 cm above floor level. The closed arms are located opposite one another. Behavior is recorded over a period of 5 min using a video camera positioned directly above the maze and rated by an observer blind to drug conditions. The major measure of interest is the amount of time spent in the open arms. As an index of general activity and distribution, the total number of entries into both open and closed arms was also recorded. […] In order to increase the sensitivity of this test to anxiolytic activity, tests are carried out under normal room illumination (25 W bulb).

[6] = molecular target: high-affinity MLT receptors; conditions: read-out: Ki, high-affinity MLT receptors; cited from earlier work

T1 sequence (P48039 whole entry): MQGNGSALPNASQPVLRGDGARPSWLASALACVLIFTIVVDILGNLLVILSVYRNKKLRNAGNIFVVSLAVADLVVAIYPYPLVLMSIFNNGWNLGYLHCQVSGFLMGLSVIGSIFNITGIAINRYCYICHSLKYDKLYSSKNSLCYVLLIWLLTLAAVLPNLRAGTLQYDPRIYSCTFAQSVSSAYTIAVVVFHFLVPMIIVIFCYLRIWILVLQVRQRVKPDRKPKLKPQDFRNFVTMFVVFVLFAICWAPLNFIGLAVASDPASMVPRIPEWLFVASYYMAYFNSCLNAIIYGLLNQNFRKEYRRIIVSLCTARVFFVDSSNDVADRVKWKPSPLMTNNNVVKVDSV

MT1 pKi [1] | MT2 pKi [2] | MT1 IAr ± SEM (relative intrinsic activity) [3] | MT2 IAr ± SEM (relative intrinsic activity) [4] | melting point [°C] | SMILES | Head Dips [5] | Percentage of time in Closed Arms [5] | Percentage of time in Open Arms [5] | Ki [6] [nM]
8.38 ± 0.01 | 9.98 ± 0.26 | 1.01 ± 0.04 | 0.73 ± 0.02 | 50 to 52 | CCCC(=O)NCCN(c1ccccc1)c1cccc(OC)c1 [5n, N-{2-[(3-Methoxyphenyl)-phenylamino]ethyl}butanamide] |  |  |  | 
 |  |  |  |  | COc1ccc2[nH]cc(CCNC(C)=O)c2c1 [MLT, N-acetyl-5-methoxytryptamine, reference compound] | 7.17 ± 0.89 | 73.33 ± 3.02 (P = 0.001) % | 26.67 ± 3.0 (P = 0.001) % | ~0.1
